Measurements: article PMC4121215, “Cytotoxic Constituents from the Rhizomes of Curcuma zedoaria” (The Scientific World Journal, 2014)
In brackets after ≈: the same amount, converted by molar mass.

These molecules were tested on MCF-7 (breast cancer) (assay: cells). Conditions: not given.
Format: cell-based
Method: (§1) The human cell lines MCF-7 (breast cancer), Ca Ski (cervical cancer), and HT-29 (colon cancer) were cultured as monolayer in RPMI 1640 growth media. HUVEC (human umbilical vein endothelial cells) and PC-3 (prostate cancer) cells were cultured in DMEM. All cells were purchased from the American Tissue Culture Collection (ATCC, USA) except for human umbilical vein endothelial cells (HUVEC) which were obtained from ScienCell Research Laboratories (Carlsbad, CA). All the media were supplemented with 10% v/v foetal bovine serum (FBS), 100 μg/mL penicillin/streptomycin, and 50 μg/mL amphotericin B. The cells were cultured in a 5% CO2 incubator at 37°C.
(§2) Cell viability was investigated using 3-(4, 5-dimethylthiazol-2-yl)-2, 5-diphenyltetrazolium bromide (MTT) assay. Cells were detached from the […] tissue culture flask when it achieved 80% confluency. The detached cells were pellet by centrifugation (1,000 rpm; 5 minutes). Cells (3.0 × 10^4 cells/mL) were seeded onto a 96-well microtiter plate (Nunc). The cells were incubated at 37°C CO2 incubator for 24 h to give adherent cells. The test compounds (1–100 μg/mL) were added onto the 96-well microtiter plate containing adherent cells. The untreated cells were incubated in 10% media containing 0.5% DMSO (without addition of any test compounds/extracts). This mixture was regarded as the negative control whereas doxorubicin as the positive control. The plates were incubated for 72 h at 37°C in a 5% CO2 incubator. After 72 h, the media were removed and 100 μL of fresh medium and 20 μL of MTT (Sigma, filter sterile, 5 mg/mL) were added to each well and further incubated for 4 hours (37°C) after which the media were substituted with 150 μL DMSO. The 96-well microtiter plates were then agitated at room temperature onto an incubator shaker to dissolve the formazan crystals. The absorbance (A) of the content of the plates was measured at 540 nm using a microplate reader. The percentage of inhibition of each test sample was calculated according to the following formula: Percentage of inhibition (%) = (A control − A sample)/A control × 100%. The average of three replicates was then obtained. The IC50 for each extract was extrapolated from the graphs of the percentage inhibition versus concentration of test agents. Cytotoxicity of each test agent is expressed as IC50 value. The IC50 value is the concentration of test agents that cause 50% inhibition or cell death, averaged from the three experiments. The selectivity index (SI) was also calculated as described by using the ratio between IC50 of the extract or compounds on normal cell lines (HUVEC) and IC50 of the tested extract or compounds on cancerous cell lines. Selectivity index (SI) values equal or greater than three were considered to have a high selectivity towards cancerous cells. An SI value denotes the selectivity of the sample to the tested cell lines.

Molecule	antiproliferative/cytotoxic activity against MCF-7 (in words)
Hexane	high inhibitory activity

Same assay, conditions: Homo sapiens, MCF7; isolated compounds; MTT, 72 h; mean ± SD of three replicates

Molecule	IC50 [µg/mL]
CC(C)=C1C/C=C(\C)CC[C@H]2O[C@@]2(C)CC1=O [Compound 15, germacrone-1,10-epoxide]	61.2 ± 5.8 (≈ 261 µM)
C/C1=C\Cc2c(C)coc2C/C(C)=C/CC1 [Compound 11, furanodiene]	36.5 ± 2.6 (≈ 169 µM)
Cc1cc2oc(=O)c(C)c-2cc2c1CC[C@@H]2C [Compound 19, gweicurculactone]	31.2 ± 3.2 (≈ 137 µM)
C=C1CC(=O)C(=C(C)C)C[C@H]2[C@H]1CC[C@]2(C)O [Compound 14, isoprocurcumenol]	58.8 ± 4.2 (≈ 251 µM)
CC1=CCCC2(C)OC2CC(=C(C)C)C(=O)C1 (centres unmarked) [Compound 12, germacrone-4,5-epoxide]	37.2 ± 4 (≈ 159 µM)
C=C(C)[C@@H]1CC[C@H](C)[C@]12CC(=C(C)C)C(=O)O2 [Compound 17, curcumanolide A]	29.8 ± 3.1 (≈ 127 µM)
CC(C)=C1C/C=C(\C)CC/C=C(\C)CC1=O [Compound 7, germacrone]	59.1 ± 2.9 (≈ 271 µM)
COc1cccc2c1C(=O)c1c(O)c3c(c(O)c1C2=O)C[C@@](O)(C(=O)CO)C[C@@H]3O[C@H]1C[C@H](N)[C@H](O)[C@H](C)O1 [doxorubicin, reference compound]	0.1 (≈ 0.184 µM)

Same assay, conditions: isolated compounds; IC50 HUVEC / IC50 MCF-7

Molecule	SI (selectivity index) MCF-7
CC(C)=C1C/C=C(\C)CC[C@H]2O[C@@]2(C)CC1=O [Compound 15, germacrone-1,10-epoxide]	0.9
C/C1=C\Cc2c(C)coc2C/C(C)=C/CC1 [Compound 11, furanodiene]	1.1
Cc1cc2oc(=O)c(C)c-2cc2c1CC[C@@H]2C [Compound 19, gweicurculactone]	2.3
C=C1CC(=O)C(=C(C)C)C[C@H]2[C@H]1CC[C@]2(C)O [Compound 14, isoprocurcumenol]	0.8
CC1=CCCC2(C)OC2CC(=C(C)C)C(=O)C1 (centres unmarked) [Compound 12, germacrone-4,5-epoxide]	1.3
C=C(C)[C@@H]1CC[C@H](C)[C@]12CC(=C(C)C)C(=O)O2 [Compound 17, curcumanolide A]	0.7
CC(C)=C1C/C=C(\C)CC/C=C(\C)CC1=O [Compound 7, germacrone]	1.2

The molecules below were run on Ca Ski (cervical cancer) (assay: cells). Conditions: not given.
Format: cell-based
Method: as §1, §2

Molecule	antiproliferative/cytotoxic activity against Ca Ski (in words)
Hexane	high inhibitory activity

Same assay, conditions: Homo sapiens, Ca-Ski; isolated compounds; MTT, 72 h; mean ± SD of three replicates

Molecule	IC50 [µg/mL]
CC(C)=C1C/C=C(\C)CC/C=C(\C)CC1=O [Compound 7, germacrone]	39.3 ± 1.2 (≈ 180 µM)
COc1cccc2c1C(=O)c1c(O)c3c(c(O)c1C2=O)C[C@@](O)(C(=O)CO)C[C@@H]3O[C@H]1C[C@H](N)[C@H](O)[C@H](C)O1 [doxorubicin, reference compound]	0.2 ± 1 (≈ 0.368 µM)

Same assay, conditions: isolated compounds; IC50 HUVEC / IC50 Ca Ski

Molecule	SI (selectivity index) Ca Ski
CC(C)=C1C/C=C(\C)CC/C=C(\C)CC1=O [Compound 7, germacrone]	1.9

Each molecule was assayed on HUVEC (human umbilical vein endothelial cells) (assay: cells). Conditions: not given.
Format: cell-based
Method: as §1, §2

Molecule	toxicity towards normal cells HUVEC (in words)
Hexane	low toxicity

Same assay, conditions: Homo sapiens, HUVEC; isolated compounds; MTT, 72 h; normal cells

Molecule	IC50 [µg/mL]
CC(C)=C1C/C=C(\C)CC[C@H]2O[C@@]2(C)CC1=O [Compound 15, germacrone-1,10-epoxide]	55.5 ± 1.6 (≈ 237 µM)
C/C1=C\Cc2c(C)coc2C/C(C)=C/CC1 [Compound 11, furanodiene]	40.9 ± 2.6 (≈ 189 µM)
Cc1cc2oc(=O)c(C)c-2cc2c1CC[C@@H]2C [Compound 19, gweicurculactone]	71.7 ± 6.1 (≈ 314 µM)
C=C1CC(=O)C(=C(C)C)C[C@H]2[C@H]1CC[C@]2(C)O [Compound 14, isoprocurcumenol]	45.1 ± 3 (≈ 192 µM)
CC1=CCCC2(C)OC2CC(=C(C)C)C(=O)C1 (centres unmarked) [Compound 12, germacrone-4,5-epoxide]	48.4 ± 4.7 (≈ 207 µM)
C=C(C)[C@@H]1CC[C@H](C)[C@]12CC(=C(C)C)C(=O)O2 [Compound 17, curcumanolide A]	21.7 ± 7 (≈ 92.6 µM)
CC(C)=C1C/C=C(\C)CC/C=C(\C)CC1=O [Compound 7, germacrone]	73.7 ± 0.3 (≈ 338 µM)
COc1cccc2c1C(=O)c1c(O)c3c(c(O)c1C2=O)C[C@@](O)(C(=O)CO)C[C@@H]3O[C@H]1C[C@H](N)[C@H](O)[C@H](C)O1 [doxorubicin, reference compound]	1.4 (≈ 2.58 µM)

These molecules were tested on HT-29 (colon cancer) (assay: MTT cytotoxicity assay, HT-29). Conditions: Homo sapiens, HT-29; isolated compounds; MTT, 72 h; mean ± SD of three replicates.
Format: cell-based
Method: as §1, §2

Molecule	IC50 [µg/mL]
CC(C)=C1C/C=C(\C)CC[C@H]2O[C@@]2(C)CC1=O [Compound 15, germacrone-1,10-epoxide]	72.8 ± 8.3 (≈ 311 µM)
C/C1=C\Cc2c(C)coc2C/C(C)=C/CC1 [Compound 11, furanodiene]	47.2 ± 4.4 (≈ 218 µM)
Cc1cc2oc(=O)c(C)c-2cc2c1CC[C@@H]2C [Compound 19, gweicurculactone]	35.7 ± 5.8 (≈ 156 µM)
C=C1CC(=O)C(=C(C)C)C[C@H]2[C@H]1CC[C@]2(C)O [Compound 14, isoprocurcumenol]	51.6 ± 3.9 (≈ 220 µM)
CC1=CCCC2(C)OC2CC(=C(C)C)C(=O)C1 (centres unmarked) [Compound 12, germacrone-4,5-epoxide]	39.6 ± 4.6 (≈ 169 µM)
C=C(C)[C@@H]1CC[C@H](C)[C@]12CC(=C(C)C)C(=O)O2 [Compound 17, curcumanolide A]	21.3 ± 3.2 (≈ 90.9 µM)
CC(C)=C1C/C=C(\C)CC/C=C(\C)CC1=O [Compound 7, germacrone]	42.9 ± 4.1 (≈ 196 µM)

Same assay, conditions: MTT assay

Molecule	antiproliferative/cytotoxic activity against HT-29 (in words)
C=C(C)[C@@H]1CC[C@H](C)[C@]12CC(=C(C)C)C(=O)O2 [Compound 17, curcumanolide A]	moderate inhibitory activity

Same assay, conditions: isolated compounds; IC50 HUVEC / IC50 HT-29

Molecule	SI (selectivity index) HT-29
CC(C)=C1C/C=C(\C)CC[C@H]2O[C@@]2(C)CC1=O [Compound 15, germacrone-1,10-epoxide]	0.8
C/C1=C\Cc2c(C)coc2C/C(C)=C/CC1 [Compound 11, furanodiene]	0.9
Cc1cc2oc(=O)c(C)c-2cc2c1CC[C@@H]2C [Compound 19, gweicurculactone]	2.0
C=C1CC(=O)C(=C(C)C)C[C@H]2[C@H]1CC[C@]2(C)O [Compound 14, isoprocurcumenol]	0.9
CC1=CCCC2(C)OC2CC(=C(C)C)C(=O)C1 (centres unmarked) [Compound 12, germacrone-4,5-epoxide]	1.2
C=C(C)[C@@H]1CC[C@H](C)[C@]12CC(=C(C)C)C(=O)O2 [Compound 17, curcumanolide A]	1.0
CC(C)=C1C/C=C(\C)CC/C=C(\C)CC1=O [Compound 7, germacrone]	1.7

The molecules below were run on PC-3 (prostate cancer) (assay: MTT cytotoxicity assay, PC-3). Conditions: Homo sapiens; isolated compounds; MTT, 72 h; mean ± SD of three replicates.
Format: cell-based
Method: as §1, §2

Molecule	IC50 [µg/mL]
CC(C)=C1C/C=C(\C)CC[C@H]2O[C@@]2(C)CC1=O [Compound 15, germacrone-1,10-epoxide]	53.2 ± 4.9 (≈ 227 µM)
C/C1=C\Cc2c(C)coc2C/C(C)=C/CC1 [Compound 11, furanodiene]	39.5 ± 4.5 (≈ 183 µM)
Cc1cc2oc(=O)c(C)c-2cc2c1CC[C@@H]2C [Compound 19, gweicurculactone]	38.3 ± 2.2 (≈ 168 µM)
C=C1CC(=O)C(=C(C)C)C[C@H]2[C@H]1CC[C@]2(C)O [Compound 14, isoprocurcumenol]	37.4 ± 4.5 (≈ 160 µM)
CC1=CCCC2(C)OC2CC(=C(C)C)C(=O)C1 (centres unmarked) [Compound 12, germacrone-4,5-epoxide]	43.9 ± 7.2 (≈ 187 µM)
C=C(C)[C@@H]1CC[C@H](C)[C@]12CC(=C(C)C)C(=O)O2 [Compound 17, curcumanolide A]	18.8 ± 2.4 (≈ 80.2 µM)
CC(C)=C1C/C=C(\C)CC/C=C(\C)CC1=O [Compound 7, germacrone]	55.2 ± 4.9 (≈ 253 µM)

Same assay, conditions: MTT assay

Molecule	antiproliferative/cytotoxic activity against PC-3 (in words)
C=C(C)[C@@H]1CC[C@H](C)[C@]12CC(=C(C)C)C(=O)O2 [Compound 17, curcumanolide A]	moderate inhibitory activity

Same assay, conditions: isolated compounds; IC50 HUVEC / IC50 PC-3

Molecule	SI (selectivity index) PC-3
CC(C)=C1C/C=C(\C)CC[C@H]2O[C@@]2(C)CC1=O [Compound 15, germacrone-1,10-epoxide]	1.0
C/C1=C\Cc2c(C)coc2C/C(C)=C/CC1 [Compound 11, furanodiene]	1.0
Cc1cc2oc(=O)c(C)c-2cc2c1CC[C@@H]2C [Compound 19, gweicurculactone]	1.9
C=C1CC(=O)C(=C(C)C)C[C@H]2[C@H]1CC[C@]2(C)O [Compound 14, isoprocurcumenol]	1.2
CC1=CCCC2(C)OC2CC(=C(C)C)C(=O)C1 (centres unmarked) [Compound 12, germacrone-4,5-epoxide]	1.1
C=C(C)[C@@H]1CC[C@H](C)[C@]12CC(=C(C)C)C(=O)O2 [Compound 17, curcumanolide A]	1.2
CC(C)=C1C/C=C(\C)CC/C=C(\C)CC1=O [Compound 7, germacrone]	1.3
